{"source": "patent EP4803525A1", "about": "(Hefei Institute of Pharmaceutical Industry Co., Ltd., priority 2023, dated 2025)", "key": {"PDE4D2": {"biological_target": "T1, PDE4D2 (Homo sapiens, UniProt Q08499)", "T1 construct": "purchased BPS bioscience", "T1 sequence (Q08499 303-809)": "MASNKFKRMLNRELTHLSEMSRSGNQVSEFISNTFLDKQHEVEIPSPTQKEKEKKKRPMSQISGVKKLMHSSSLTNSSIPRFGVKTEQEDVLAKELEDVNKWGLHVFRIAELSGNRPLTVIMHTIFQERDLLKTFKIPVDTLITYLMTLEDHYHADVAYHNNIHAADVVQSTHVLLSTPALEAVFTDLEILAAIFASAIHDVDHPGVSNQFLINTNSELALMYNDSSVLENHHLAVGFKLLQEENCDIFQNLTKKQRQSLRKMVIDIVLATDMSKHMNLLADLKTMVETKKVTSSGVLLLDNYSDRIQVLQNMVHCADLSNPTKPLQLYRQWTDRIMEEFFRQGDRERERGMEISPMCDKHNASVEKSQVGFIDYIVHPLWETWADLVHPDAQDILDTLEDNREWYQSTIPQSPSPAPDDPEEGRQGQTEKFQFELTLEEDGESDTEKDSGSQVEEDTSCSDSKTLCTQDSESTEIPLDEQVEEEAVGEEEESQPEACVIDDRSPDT", "test": "Selectivity for PDE4 enzyme isotypes, same detection method as PDE4B", "format": "biochemical", "experimental": "(§1) 2.1 Compound preparation and treatment: all compounds were prepared into 50 mM stock solutions using dimethyl sulfoxide.\n(§2) 2.2 Preparation of working stock solution: a) the reference rolipram was serially diluted 3 times with dimethyl sulfoxide starting from 2 mmol, to a total of 10 concentrations. b) 2 mmol of the compound of the present invention was serially diluted three times with dimethyl sulfoxide (DMSO) to a total of 10 concentrations. c) A 200X positive control (2 mM rolipram) and a 200X vector control (100% dimethyl sulfoxide) were prepared. d) The compound plate was centrifuged at 1000 rpm for 1 minute.\n(§3) • a) An Echo 550 was used to transfer 20 nL of compound dilution to each well of the detection plate. • b) The test plate was sealed and centrifuged at 1000 rpm for 1 minute. • c) 2X PDE4B2 was prepared in frozen PDE detection buffer. • d) 2 µL of 2X PDE4B2 was added to each well of the detection plate (prepared in step b). • e) The test plate was sealed and incubated for 10 minutes under RT conditions. • f) 2X Cyclic-3',5'-AMP was prepared in PDE detection buffer. • g) 2 µl of 2X Cyclic-3',5'-AMP (prepared in step f) was added to each well of the detection plate (prepared in step e) to initiate the reaction. Incubation was performed at room temperature for 60 minutes. • h) 4 µL of AMP-Glo reagent I was added. • i) 8 µL of AMP detection solution was added. Incubation was performed at room temperature for 60 minutes. • k) The RLU signal was read on the Envision 2105 reader.\n(§4) Same detection method as PDE4B"}, "PDE4C1": {"biological_target": "T2, PDE4C1 (Homo sapiens, UniProt Q08493)", "T2 construct": "purchased BPS bioscience", "T2 sequence (Q08493 whole entry)": "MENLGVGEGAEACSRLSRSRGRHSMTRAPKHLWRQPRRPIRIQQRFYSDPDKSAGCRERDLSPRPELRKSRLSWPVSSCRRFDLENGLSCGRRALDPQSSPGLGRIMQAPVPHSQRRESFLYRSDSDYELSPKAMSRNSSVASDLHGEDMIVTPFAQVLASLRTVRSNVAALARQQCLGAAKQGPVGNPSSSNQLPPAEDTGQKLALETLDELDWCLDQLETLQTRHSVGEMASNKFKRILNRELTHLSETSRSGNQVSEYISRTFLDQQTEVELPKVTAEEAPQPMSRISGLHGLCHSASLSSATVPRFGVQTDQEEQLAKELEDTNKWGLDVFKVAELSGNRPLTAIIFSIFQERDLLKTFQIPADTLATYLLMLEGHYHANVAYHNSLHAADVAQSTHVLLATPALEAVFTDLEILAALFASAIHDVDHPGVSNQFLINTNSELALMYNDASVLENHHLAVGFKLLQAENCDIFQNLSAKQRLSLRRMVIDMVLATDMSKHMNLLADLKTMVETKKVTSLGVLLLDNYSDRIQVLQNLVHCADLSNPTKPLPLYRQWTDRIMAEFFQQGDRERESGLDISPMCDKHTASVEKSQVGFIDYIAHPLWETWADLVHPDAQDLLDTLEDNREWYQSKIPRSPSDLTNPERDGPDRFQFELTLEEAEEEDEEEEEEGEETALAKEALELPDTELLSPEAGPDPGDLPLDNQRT", "test": "Selectivity for PDE4 enzyme isotypes, same detection method as PDE4B", "format": "biochemical", "experimental": "as §1, §2, §3, §4"}, "PDE4B2A": {"biological_target": "T3, PDE4B2A (Homo sapiens, UniProt Q07343)", "T3 construct": "purchased BPS bioscience", "T3 sequence (Q07343 1-564 isoform Q07343-2)": "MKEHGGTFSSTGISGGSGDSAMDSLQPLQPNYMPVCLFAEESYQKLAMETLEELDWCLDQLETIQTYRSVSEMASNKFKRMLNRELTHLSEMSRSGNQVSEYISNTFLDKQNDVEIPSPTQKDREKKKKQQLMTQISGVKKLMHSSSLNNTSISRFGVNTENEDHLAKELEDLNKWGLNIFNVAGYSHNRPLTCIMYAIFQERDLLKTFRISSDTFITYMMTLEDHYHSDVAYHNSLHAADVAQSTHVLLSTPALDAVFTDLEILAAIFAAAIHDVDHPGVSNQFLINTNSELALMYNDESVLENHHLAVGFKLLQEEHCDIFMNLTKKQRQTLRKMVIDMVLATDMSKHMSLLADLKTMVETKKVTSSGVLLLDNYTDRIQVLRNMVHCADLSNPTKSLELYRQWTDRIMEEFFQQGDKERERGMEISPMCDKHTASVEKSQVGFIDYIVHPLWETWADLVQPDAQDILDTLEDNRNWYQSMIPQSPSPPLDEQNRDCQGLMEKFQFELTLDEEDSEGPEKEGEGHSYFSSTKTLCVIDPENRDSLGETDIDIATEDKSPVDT", "test": "Selectivity for PDE4 enzyme isotypes, same detection method as PDE4B", "format": "biochemical", "experimental": "as §1, §2, §3, §4"}, "PDE4D3": {"biological_target": "T4, PDE4D3 (Homo sapiens, UniProt Q08499)", "T4 construct": "purchased BPS bioscience", "T4 sequence (Q08499 1-673 isoform Q08499-2)": "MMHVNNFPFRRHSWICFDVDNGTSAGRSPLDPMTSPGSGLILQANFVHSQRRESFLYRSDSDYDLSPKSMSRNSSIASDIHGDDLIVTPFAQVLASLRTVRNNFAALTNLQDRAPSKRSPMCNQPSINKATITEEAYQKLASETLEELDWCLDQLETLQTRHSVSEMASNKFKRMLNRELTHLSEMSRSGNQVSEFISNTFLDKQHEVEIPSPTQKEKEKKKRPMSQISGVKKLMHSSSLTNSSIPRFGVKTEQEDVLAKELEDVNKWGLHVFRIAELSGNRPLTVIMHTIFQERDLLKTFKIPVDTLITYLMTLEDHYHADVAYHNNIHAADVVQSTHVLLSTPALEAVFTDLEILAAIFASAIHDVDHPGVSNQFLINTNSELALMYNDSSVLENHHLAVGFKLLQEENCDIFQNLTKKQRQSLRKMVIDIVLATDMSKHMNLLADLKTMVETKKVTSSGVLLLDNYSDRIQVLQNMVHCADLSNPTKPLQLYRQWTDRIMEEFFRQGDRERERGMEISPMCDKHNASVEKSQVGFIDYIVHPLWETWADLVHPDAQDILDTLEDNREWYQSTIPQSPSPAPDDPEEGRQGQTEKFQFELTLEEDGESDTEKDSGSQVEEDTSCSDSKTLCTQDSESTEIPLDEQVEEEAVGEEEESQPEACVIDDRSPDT", "test": "Selectivity for PDE4 enzyme isotypes, same detection method as PDE4B", "format": "biochemical", "experimental": "as §1, §2, §3, §4"}, "PDE4A1A": {"biological_target": "T5, PDE4A1A (Homo sapiens, UniProt P27815)", "T5 construct": "purchased BPS bioscience", "T5 sequence (P27815 1-647 isoform P27815-4)": "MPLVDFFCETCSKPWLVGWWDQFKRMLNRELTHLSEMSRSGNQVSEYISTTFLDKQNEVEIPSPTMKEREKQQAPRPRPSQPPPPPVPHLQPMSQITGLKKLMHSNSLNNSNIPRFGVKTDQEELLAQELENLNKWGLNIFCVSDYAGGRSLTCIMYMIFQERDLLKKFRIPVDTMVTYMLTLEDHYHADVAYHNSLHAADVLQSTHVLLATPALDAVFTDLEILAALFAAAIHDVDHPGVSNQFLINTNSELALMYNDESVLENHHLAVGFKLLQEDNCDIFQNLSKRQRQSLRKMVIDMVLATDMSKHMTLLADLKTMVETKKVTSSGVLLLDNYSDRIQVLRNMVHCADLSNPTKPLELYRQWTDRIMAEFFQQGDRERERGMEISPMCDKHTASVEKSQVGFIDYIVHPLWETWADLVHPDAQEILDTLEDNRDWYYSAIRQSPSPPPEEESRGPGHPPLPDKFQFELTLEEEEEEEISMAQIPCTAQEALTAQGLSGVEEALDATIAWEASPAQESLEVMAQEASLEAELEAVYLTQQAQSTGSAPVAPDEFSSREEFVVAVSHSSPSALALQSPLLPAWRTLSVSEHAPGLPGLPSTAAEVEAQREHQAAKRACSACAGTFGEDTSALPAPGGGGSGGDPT", "test": "Selectivity for PDE4 enzyme isotypes, same detection method as PDE4B", "format": "biochemical", "experimental": "as §1, §2, §3, §4"}, "hERG potassium channel": {"biological_target": "T6, hERG potassium channel (Homo sapiens, UniProt Q12809)", "T6 construct": "host or cells: HEK-293", "T6 sequence (Q12809 whole entry)": "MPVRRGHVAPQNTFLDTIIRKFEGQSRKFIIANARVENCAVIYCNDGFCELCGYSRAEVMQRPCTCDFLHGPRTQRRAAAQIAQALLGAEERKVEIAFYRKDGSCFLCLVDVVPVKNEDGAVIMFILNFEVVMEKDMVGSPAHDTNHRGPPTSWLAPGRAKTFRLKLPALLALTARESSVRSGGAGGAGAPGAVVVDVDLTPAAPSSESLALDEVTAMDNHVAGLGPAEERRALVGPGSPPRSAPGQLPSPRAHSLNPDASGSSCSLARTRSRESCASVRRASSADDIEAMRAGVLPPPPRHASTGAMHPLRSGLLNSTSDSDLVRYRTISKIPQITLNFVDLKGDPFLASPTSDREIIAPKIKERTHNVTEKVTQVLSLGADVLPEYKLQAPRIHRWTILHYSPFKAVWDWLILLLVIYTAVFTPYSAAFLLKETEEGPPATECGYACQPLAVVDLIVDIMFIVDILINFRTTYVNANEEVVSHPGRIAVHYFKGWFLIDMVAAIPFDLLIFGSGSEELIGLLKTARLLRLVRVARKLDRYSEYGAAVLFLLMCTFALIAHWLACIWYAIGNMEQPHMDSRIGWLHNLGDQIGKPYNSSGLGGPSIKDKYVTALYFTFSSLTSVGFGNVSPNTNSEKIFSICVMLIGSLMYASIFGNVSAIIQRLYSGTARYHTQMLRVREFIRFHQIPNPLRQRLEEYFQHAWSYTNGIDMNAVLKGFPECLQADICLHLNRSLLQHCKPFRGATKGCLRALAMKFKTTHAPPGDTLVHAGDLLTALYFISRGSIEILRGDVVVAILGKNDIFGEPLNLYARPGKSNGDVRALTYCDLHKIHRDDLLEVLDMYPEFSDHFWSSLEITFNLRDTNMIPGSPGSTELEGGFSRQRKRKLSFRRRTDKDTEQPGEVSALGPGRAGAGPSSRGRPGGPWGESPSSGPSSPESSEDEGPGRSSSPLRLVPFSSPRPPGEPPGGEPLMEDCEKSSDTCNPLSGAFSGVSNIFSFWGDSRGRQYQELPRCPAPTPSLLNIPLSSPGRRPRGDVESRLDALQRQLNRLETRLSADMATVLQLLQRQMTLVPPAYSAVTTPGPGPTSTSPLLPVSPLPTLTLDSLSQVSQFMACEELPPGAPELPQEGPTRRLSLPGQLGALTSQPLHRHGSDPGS", "test": "hERG whole-cell patch-clamp test in HEK-293 cells", "format": "cell-based", "details": "HEK-293 cells stably expressing hERG, whole-cell patch clamp, 0.03-30 µM, read-out: h ERG IC50", "experimental": "HEK-293 cell line stably expressing hERG potassium channels (purchased from Creacell, catalog number: A-0320) was used. HEK293 cell lines were cultured in DMEM medium containing 10% fetal bovine serum and 0.8 mg/mL G418 at a temperature of 37°C and a carbon dioxide concentration of 5%. For patch-clamp assays, cells were separated using TrypLE™ Express before the assay. 4 × 10^3 cells were seeded onto coverslips and cultured in 24-well plates (final volume: 500 µL). The assays were performed 18 hours later.\nWhole-cell patch-clamp test: after whole-cell sealing is achieved, the cell membrane voltage is clamped to -80mV. […] Data was collected every 10 seconds to observe the effect of the drug on hERG tail current. A -50 mV stimulus of 0.5 s was used as the leakage current detection. Experimental data were collected by the EPC-10 amplifier and stored in the software. Once the hERG current recorded in whole cells stabilized, drug administration began. Each drug concentration was administered for 5 minutes (or the current stabilized) before the next concentration was measured."}, "[1]": {"system": "rat model of chronic obstructive pulmonary disease (COPD)", "test": "Chronic obstructive pulmonary disease in rats (fumigation and intratracheal LPS)", "details": "n=8; for 14-day FEV 1/FVC (%): day 14 of treatment; for 14-day FEV 1/FVC (%) / 28-day FEV 1/FVC (%): Mean ± SD; for 28-day FEV 1/FVC (%): last administration (28 days); for Pathological score: lung tissue, HE staining; for Pathological score / IL-1β / TNF-α: mean ± SD; for IL-1β / TNF-α: serum, ELISA"}, "[2]": {"system": "bleomycin-induced pulmonary fibrosis in rats", "test": "Bleomycin-induced pulmonary fibrosis in rats", "details": "mean ± SD, n=10; for Percentage of lung collagen fibers (%): Masson's staining; for IL-6 / TGF-β: bronchoalveolar lavage fluid, ELISA"}, "[3]": {"system": "mouse eosinophilic asthma model", "test": "Eosinophilic asthma induced by house dust mite extract in mice", "details": "eosinophilic asthmatic mice, n=10; for IL-4 / IgE: bronchoalveolar lavage fluid, Mean ± SD; for Eosinophils (%): lung lavage fluid; for Eosinophils (%) / Number of sneezes (20 minutes): mean ± SD; for Number of sneezes (20 minutes): within 20 minutes after the last administration"}, "[4]": {"details": "5 mg/kg twice a day for 28 days"}, "[5]": {"details": "10 mg/kg twice a day for 28 days"}, "[6]": {"details": "20 mg/kg twice a day for 28 days"}, "[7]": {"details": "5 mg/kg intragastric twice daily for 14 days"}, "[8]": {"details": "10 mg/kg intragastric twice daily for 14 days"}, "[9]": {"details": "20 mg/kg intragastric twice daily for 14 days"}, "[10]": {"details": "5 mg/kg twice daily for 14 days"}, "[11]": {"details": "10 mg/kg twice daily for 14 days"}, "[12]": {"details": "20 mg/kg twice daily for 14 days"}}, "data": [{"smiles": "[O-][S+]1CCc2nc(N3CCC(c4ncc(Cl)cn4)CC3)nc(NC3(CO)CCC3)c21", "note": "(stereo not drawn) [WO2013026797 (Compound II)]", "values": [{"measurement": "IC50", "setting": "PDE4D2", "value": 37.1, "unit": "nM"}, {"measurement": "Selectivity over PDE4B", "setting": "PDE4D2; PDE4D2 vs PDE4B2A", "value": 1.5}, {"measurement": "IC50", "setting": "PDE4C1", "value": 2190, "unit": "nM"}, {"measurement": "Selectivity over PDE4B", "setting": "PDE4C1; PDE4C1 vs PDE4B2A", "value": 89}, {"measurement": "IC50", "setting": "PDE4B2A", "value": 24.5, "unit": "nM"}, {"measurement": "Selectivity over PDE4B", "setting": "PDE4B2A; PDE4B2A vs PDE4B2A", "value": 1}, {"measurement": "IC50", "setting": "PDE4D3", "value": 65.8, "unit": "nM"}, {"measurement": "Selectivity over PDE4B", "setting": "PDE4D3; PDE4D3 vs PDE4B2A", "value": 2.7}, {"measurement": "IC50", "setting": "PDE4A1A", "value": 112, "unit": "nM"}, {"measurement": "Selectivity over PDE4B", "setting": "PDE4A1A; PDE4A1A vs PDE4B2A", "value": 4.5}, {"measurement": "IC50 at 5 min", "setting": "hERG potassium channel; human, HEK-293 cells stably expressing hERG potassium channels", "value": "> 3280", "unit": "nM"}]}, {"smiles": "O=C(O)Cc1ccc(Nc2nc(N3CCC(c4ncc(Cl)cn4)CC3)nc3c2S(=O)(=O)CCC3)cc1F", "note": "[Example 11, 2-(4-((2-(4-(5-chloropyrimidin-2-yl)piperidin-1-yl)-5,5-dioxo-7,8-dihydro-6H -thiapyrano[3,2-d]pyrimidin-4-yl)amino)-2-fluorophenyl)acetic acid]", "values": [{"measurement": "14-day FEV 1/FVC (%)", "setting": "[1]; 5 mg/kg twice a day", "value": "66.65±5.48", "unit": "%"}, {"measurement": "28-day FEV 1/FVC (%)", "setting": "[1]; 5 mg/kg twice a day", "value": "69.99±2.65", "unit": "%"}, {"measurement": "14-day FEV 1/FVC (%)", "setting": "[1]; 10 mg/kg twice a day", "value": "72.14±6.56", "unit": "%"}, {"measurement": "28-day FEV 1/FVC (%)", "setting": "[1]; 10 mg/kg twice a day", "value": "75.30±1.84", "unit": "%"}, {"measurement": "14-day FEV 1/FVC (%)", "setting": "[1]; 20 mg/kg twice a day", "value": "76.78±5.41", "unit": "%"}, {"measurement": "28-day FEV 1/FVC (%)", "setting": "[1]; 20 mg/kg twice a day", "value": "77.10±1.81", "unit": "%"}, {"measurement": "Pathological score", "setting": "[1]; [4]", "value": "3.83 ± 0.75"}, {"measurement": "Pathological score", "setting": "[1]; [5]", "value": "2.00±0.63"}, {"measurement": "Pathological score", "setting": "[1]; [6]", "value": "1.83±0.41"}, {"measurement": "IL-1β", "setting": "[1]; [4]", "value": "71.13 ± 16.14", "unit": "pg/mL"}, {"measurement": "TNF-α", "setting": "[1]; [4]", "value": "118.36 ± 27.30", "unit": "pg/mL"}, {"measurement": "IL-1β", "setting": "[1]; [5]", "value": "51.92 ± 16.06", "unit": "pg/mL"}, {"measurement": "TNF-α", "setting": "[1]; [5]", "value": "90.15 ± 15.79", "unit": "pg/mL"}, {"measurement": "IL-1β", "setting": "[1]; [6]", "value": "50.75 ± 15.07", "unit": "pg/mL"}, {"measurement": "TNF-α", "setting": "[1]; [6]", "value": "73.23 ± 11.78", "unit": "pg/mL"}, {"measurement": "Percentage of lung collagen fibers (%)", "setting": "[2]; [7]", "value": "16.1±4.6", "unit": "%"}, {"measurement": "Percentage of lung collagen fibers (%)", "setting": "[2]; [8]", "value": "9.7±2.2", "unit": "%"}, {"measurement": "Percentage of lung collagen fibers (%)", "setting": "[2]; [9]", "value": "8.5±2.5", "unit": "%"}, {"measurement": "IL-6", "setting": "[2]; [7]", "value": "34.8 ± 3.7", "unit": "pg/mL"}, {"measurement": "TGF-β", "setting": "[2]; [7]", "value": "79.0 ± 6.4", "unit": "pg/mL"}, {"measurement": "IL-6", "setting": "[2]; [8]", "value": "32.5 ± 6.1", "unit": "pg/mL"}, {"measurement": "TGF-β", "setting": "[2]; [8]", "value": "69.1 ± 6.3", "unit": "pg/mL"}, {"measurement": "IL-6", "setting": "[2]; [9]", "value": "28.3 ± 3.9", "unit": "pg/mL"}, {"measurement": "TGF-β", "setting": "[2]; [9]", "value": "56.3 ± 5.2", "unit": "pg/mL"}, {"measurement": "IC50", "setting": "hERG potassium channel", "value": "> 30000", "unit": "nM"}, {"measurement": "IL-4", "setting": "[3]; [10]", "value": "70.92 ± 10.87", "unit": "pg/mL"}, {"measurement": "IgE", "setting": "[3]; [10]", "value": "266.55 ± 52.03", "unit": "pg/mL"}, {"measurement": "IL-4", "setting": "[3]; [11]", "value": "59.38 ± 9.90", "unit": "pg/mL"}, {"measurement": "IgE", "setting": "[3]; [11]", "value": "219.05 ± 38.74", "unit": "pg/mL"}, {"measurement": "IL-4", "setting": "[3]; [12]", "value": "51.13 ± 16.07", "unit": "pg/mL"}, {"measurement": "IgE", "setting": "[3]; [12]", "value": "189.36 ± 56.69", "unit": "pg/mL"}, {"measurement": "Eosinophils (%)", "setting": "[3]; [10]", "value": "21.97±2.58", "unit": "%"}, {"measurement": "Eosinophils (%)", "setting": "[3]; [11]", "value": "17.93±3.30", "unit": "%"}, {"measurement": "Eosinophils (%)", "setting": "[3]; [12]", "value": "16.04±2.97", "unit": "%"}, {"measurement": "Number of sneezes (20 minutes)", "setting": "[3]; [10]", "value": "17.9±3.4"}, {"measurement": "Number of sneezes (20 minutes)", "setting": "[3]; [11]", "value": "16.3±3.7"}, {"measurement": "Number of sneezes (20 minutes)", "setting": "[3]; [12]", "value": "13.8±1.9"}]}]}
